In publication PMC11775380, “Discovery of Novel Nav1.7-Selective Inhibitors with the 1H-Indole-3-Propionamide Scaffold for Effective Pain Relief” (Research, 2025):

Experiments:
mice = conditions: mouse, in vivo
Description: VGSC inhibitors required credible subtype selectivity to void side effects caused by binding to nontarget subtypes. At a concentration of 1 μM, the inhibitory rates of WN2-R on hNav1.2, hNav1.3, hNav1.4, hNav1.5, mNav1.6, and hNav1.8 were determined (n = 3 to 6, Fig. 7A). […] To further evaluate the drug safety profile, high-dose acute toxicity experiments were conducted. Mice were administered a high dose of 30 mg/kg WN2-R through i.p. administration. The rotarod test, forced-swim test, and open field test were used to explore the effect of high-dose WN2-R on the motor ability of mice (n = 4). The rotarod test evaluated the drug's effect on motor coordination, the forced-swim test examined its impact on the overall motor system, and the open field test assessed the drug's influence on the motor and nervous systems.

human Nav1.7 (hNav1.7) = target: T1, human Nav1.7 (hNav1.7) (Homo sapiens, UniProt Q15858); assay: Whole-cell patch-clamp inhibition of Nav1.7 currents in transfected HEK293T cells; assay type: cell-based
T1 construct: expressed in transfected cells; host or cells: HEK293T
Method in brief: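 hNav1.7 co-expressed with eGFP-tagged β1 and β2 subunits in HEK293T, recorded by manual whole-cell voltage clamp at 25 ± 2 °C with CsF-based pipette and NaCl external solutions, pH 7.4. IC50 from holding at −80 mV then stepping to inactivation V1/2 for 8 s to promote compound binding.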

T1 sequence (Q15858 whole entry): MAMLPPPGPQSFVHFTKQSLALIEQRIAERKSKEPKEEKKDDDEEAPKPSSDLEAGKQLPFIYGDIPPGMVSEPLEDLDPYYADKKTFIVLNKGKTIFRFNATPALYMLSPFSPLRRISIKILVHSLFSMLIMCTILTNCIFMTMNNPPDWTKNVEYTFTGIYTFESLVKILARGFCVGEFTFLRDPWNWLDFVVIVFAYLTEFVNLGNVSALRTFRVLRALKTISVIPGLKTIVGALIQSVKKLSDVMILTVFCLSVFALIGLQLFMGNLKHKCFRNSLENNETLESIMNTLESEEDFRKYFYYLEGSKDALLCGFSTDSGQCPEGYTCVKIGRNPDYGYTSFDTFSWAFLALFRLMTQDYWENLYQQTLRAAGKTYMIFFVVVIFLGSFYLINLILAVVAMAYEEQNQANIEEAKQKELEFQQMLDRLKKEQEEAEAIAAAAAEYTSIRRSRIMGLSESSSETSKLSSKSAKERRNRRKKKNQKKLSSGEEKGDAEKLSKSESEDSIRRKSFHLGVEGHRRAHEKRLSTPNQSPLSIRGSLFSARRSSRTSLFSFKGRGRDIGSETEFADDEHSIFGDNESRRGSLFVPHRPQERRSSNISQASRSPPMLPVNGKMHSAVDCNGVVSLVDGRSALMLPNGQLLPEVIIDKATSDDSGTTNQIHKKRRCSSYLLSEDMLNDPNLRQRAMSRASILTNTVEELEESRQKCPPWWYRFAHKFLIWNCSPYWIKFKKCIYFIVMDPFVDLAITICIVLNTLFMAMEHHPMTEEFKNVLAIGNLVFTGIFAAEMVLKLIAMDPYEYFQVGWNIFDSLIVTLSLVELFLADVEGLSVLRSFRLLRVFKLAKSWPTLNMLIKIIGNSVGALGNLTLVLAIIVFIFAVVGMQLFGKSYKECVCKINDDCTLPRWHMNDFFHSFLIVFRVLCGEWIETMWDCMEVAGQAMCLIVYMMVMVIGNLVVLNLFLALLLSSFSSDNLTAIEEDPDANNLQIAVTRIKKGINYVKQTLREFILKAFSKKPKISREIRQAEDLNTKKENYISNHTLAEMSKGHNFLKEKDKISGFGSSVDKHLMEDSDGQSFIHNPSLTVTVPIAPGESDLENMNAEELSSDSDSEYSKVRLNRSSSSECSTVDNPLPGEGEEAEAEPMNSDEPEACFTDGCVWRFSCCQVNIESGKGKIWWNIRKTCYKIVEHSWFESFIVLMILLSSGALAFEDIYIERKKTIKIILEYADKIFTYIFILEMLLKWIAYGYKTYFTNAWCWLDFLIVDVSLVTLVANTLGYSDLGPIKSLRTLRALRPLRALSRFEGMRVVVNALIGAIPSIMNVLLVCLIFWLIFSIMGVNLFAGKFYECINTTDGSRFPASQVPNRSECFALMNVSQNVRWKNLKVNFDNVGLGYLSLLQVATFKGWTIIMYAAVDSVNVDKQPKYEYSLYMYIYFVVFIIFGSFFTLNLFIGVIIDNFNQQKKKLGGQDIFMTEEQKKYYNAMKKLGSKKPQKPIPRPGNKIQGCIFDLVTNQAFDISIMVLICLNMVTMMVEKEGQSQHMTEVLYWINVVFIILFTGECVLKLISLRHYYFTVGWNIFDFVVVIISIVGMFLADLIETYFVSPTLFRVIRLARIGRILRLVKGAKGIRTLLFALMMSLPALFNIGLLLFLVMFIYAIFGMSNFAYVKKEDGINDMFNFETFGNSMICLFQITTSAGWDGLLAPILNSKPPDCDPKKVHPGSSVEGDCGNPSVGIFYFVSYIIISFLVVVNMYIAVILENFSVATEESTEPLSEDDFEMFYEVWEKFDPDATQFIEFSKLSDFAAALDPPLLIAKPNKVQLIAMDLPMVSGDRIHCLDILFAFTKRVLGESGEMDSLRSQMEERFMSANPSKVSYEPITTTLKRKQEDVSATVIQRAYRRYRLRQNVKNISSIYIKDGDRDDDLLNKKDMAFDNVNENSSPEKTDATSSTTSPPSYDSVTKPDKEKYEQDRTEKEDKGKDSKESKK
T1 sequence (Q07699 19-218 partner): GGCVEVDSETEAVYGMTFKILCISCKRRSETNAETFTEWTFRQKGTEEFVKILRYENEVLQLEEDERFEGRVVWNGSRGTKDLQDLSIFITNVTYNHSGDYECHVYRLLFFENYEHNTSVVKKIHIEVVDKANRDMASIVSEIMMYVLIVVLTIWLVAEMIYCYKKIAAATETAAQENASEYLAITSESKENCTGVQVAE
T1 sequence (O60939 30-215 partner): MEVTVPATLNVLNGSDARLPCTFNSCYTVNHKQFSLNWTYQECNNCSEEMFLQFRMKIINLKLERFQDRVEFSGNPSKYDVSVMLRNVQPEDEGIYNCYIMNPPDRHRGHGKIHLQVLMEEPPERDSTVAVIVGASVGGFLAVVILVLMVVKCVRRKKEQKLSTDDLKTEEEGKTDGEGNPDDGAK

Q: With `Cc1ccc(Cn2cc([C@H](CC(=O)NCCN(C)C)c3ccc(F)cc3)c3ccccc32)cc1` [WN2-R] as the molecule, how does the “Survival after high dose” value (mice) read?
A: survived normally

Q: And the “Activity of P1 relative to P2” value (human Nav1.7 (hNav1.7); ratio of Nav1.7 IC50 values of the enantiomers)?
A: 4.57 times

Q: And the IC50 (human Nav1.7 (hNav1.7); −80 mV holding, step to V1/2 of inactivation for 8 s, HEK293T)?
A: 24.7 ± 9.4 nM
